In assay [1] the test system is anti-BCMA CAR+ T cells. Kind of assay: Expansion of EGFRt+ cells after BCMA-conjugated bead stimulation. It counts as cell-based, human. The note with it: 5 μM lenalidomide. As for the experimental part:
(§1) Cryofrozen anti-BCMA CAR T cells, produced substantially as described in Example 2 and formulated at a 1:1 ratio of CD4+ and CD8+ T cells, were thawed. Unless otherwise indicated, beads (diameter about 4.5 μm) from a 5 μg/ml or 50 μg/ml BCMA-conjugated bead composition, generated as described in Example 1, were added to the wells at a ratio of T cells to beads of 1:2 in the presence or absence of 5 μM lenalidomide. Cells were incubated up to 14 days and analyzed at various time points for cytokine secretion, cell expansion by flow cytometry for the EGFRt surrogate marker, and for cytolytic activity.
Four days and seven days after addition of BCMA-conjugated beads, the incubated cells were stained with CD4 or CD8 and with an anti-EGFR antibody to determine the percentage of cells positive for EGFRt as a surrogate for CAR+ T cells. At the time of plating, 26% of the CD4+ cells expressed anti-BCMA CAR and 39% of the CD8+ cells expressed anti-BCMA CAR as determined by staining with BCMA-Fc. The percent of EGFRt+CD4+ T cells increased from about 26% at the initiation of the incubation to greater than 40% by day 4 (FIG. 9J) and greater than 60% by day 7 (FIG. 9K) when the cells were incubated in the presence of beads from a 50 μg/mL BCMA-conjugated bead composition. […]

Assay [2] has as its system anti-BCMA CAR+ T cells. Kind of assay: Surface markers and proliferation at different T cell:bead ratios with or without lenalidomide. It counts as cell-based, human. As for the experimental part:
In another experiment, approximately 1.5×10^6 CAR+ T cells, prepared as described above, were added to wells of a 12-well plate and were incubated with beads from a 200 μg BCMA-conjugated bead composition at a ratio of CAR+ T cell to BCMA-conjugated bead of 1:0.3, 1:1 or 1:3 (approximately 0.5×10^6, 1.5×10^6, and 4.5×10^6 beads per well, respectively). As controls, 5 μg/mL anti-CD3 antibody was coated to wells (sub-optimal concentration for stimulation) or cells were seeded in the absence of any agent (no stimulation control). Each condition was incubated in the presence or absence of 5 μM lenalidomide. […] […] There also was a slight increase in PD-1 surface expression on CD8+ cells when stimulated with BCMA-conjugated beads at the higher BCMA bead concentration provided at the ratio of 1:3 CAR+ T cells to beads. The results are consistent with a finding that the BCMA concentration present during the incubation can differentially modulate surface marker expression on the CAR+ T cells.

For assay [3], the system named is anti-BCMA CAR+ T cells. Kind of assay: Cell count and CTV proliferation after BCMA-conjugated bead stimulation. It counts as cell-based, human. The note with it: 5 μM lenalidomide. As for the experimental part: as §1
Total cell count, monitored at day 4 (FIG. 9G) and day 7 (FIG. 9H), was increased following stimulation of anti-BCMA CAR+ T cells with beads from a 50 μg/mL BCMA-conjugated bead composition, but not 5 μg/mL BCMA-conjugated bead composition, compared to the cells present at the time of initiation of the incubation (dashed line).
To further assess proliferation, the cells containing anti-BCMA CAR-expressing T cells were labeled with the proliferation marker dye CELLTRACE VIOLET (CTV; ThermoFisher Scientific, Waltham Mass.) in accordance with the manufacturer's protocol prior to incubation with the BCMA-conjugated beads. Proliferation was assessed by dye dilution using flow cytometry on cells that were stimulated with beads from the 50 μg/mL BCMA-conjugated bead composition.

The subject of assay [4] is RPMI-8226 target cells. The assay is described as follows: Cytolytic activity and cytokine production of bead-prestimulated CAR-T cells on target cells. It counts as cell-based. As for the experimental part:
Anti-BCMA CAR-T cells, generated from samples from representative healthy donors or multiple myeloma patient derived material, and cultured with 50 μg/mL BCMA-Fc conjugated beads (generated as described in Example 1) at a ratio of 1:1 bead:CAR+ T cell for 7 days, in the presence of […] lenalidomide or a vehicle control. Expression of CD25, PD-1, Tim3 and Lag3 on CAR T cells (using an antibody for surrogate CAR marker) cultured under the different conditions then was assessed by flow cytometry.
Specifically, for pretreated cells in which pretreatment had been conducted in the presence of lenalidomide, the cells were cultured with the target cells in the presence of lenalidomide; likewise, for pretreated cells in which pretreatment had been conducted in the presence of vehicle, cells were cultured with the target cells in the presence of vehicle. Following the co-culture, cytolytic activity was assessed by measuring the loss of viable target cells over a period of seven days, as determined by red fluorescent signal. Percentage killing was normalized to anti-BCMA CAR T cells prestimulated on beads in the presence of vehicle. Cytokine production was assessed by ELISA from supernatant following culture with target cells for 24 hours. Experiments were performed twice in 3 donors. […]

For assay [5], the system named is RPMI-8226. The assay is described as follows: Serial restimulation with BCMA-conjugated beads, then cytolytic activity. It counts as cell-based. As for the experimental part: Anti-BCMA CAR T cell compositions were generated from three different donors, each containing T cells expressing the same anti-BCMA CAR, thawed, and were incubated for seven days with beads (diameter about 4.5 μm) from a 50 μg/mL BCMA-conjugated bead composition generated as described in Example 1 at a 1:1 ratio of beads to cells. The incubation was carried out in the presence of 5 μM lenalidomide or in the absence of lenalidomide (vehicle control). Cells were harvested after 7 days and replated for three further rounds up to 28 days, each round involving resetting to initial seeding density and incubating for an additional 7 days in the presence of the same concentration of lenalidomide.
At each reset after the pretreatment, cytolytic activity was assessed by incubation with the BCMA-expressing target cell line RPMI-8226 (labeled with NucLight Red (NLR)) at an effector to target cell (E:T) ratio of 1:1 in the further presence of or absence of lenalidomide. Cytolytic activity was assessed by measuring the loss of viable target cells over a period of up to 80-150 hours, as determined by red fluorescent signal (using the IncuCyte® Live Cell Analysis System, Essen Bioscience). Cells from each condition were plated in triplicate. The % cell killing compared to vehicle only control (set at 100%) was determined.

Molecules are shown by their SMILES.

In the case of `Nc1cccc2c1CN(C1CCC(=O)NC1=O)C2=O` (stereo not shown) [lenalidomide], in assay [1], the “extent of CAR+ T cell expansion” value is reported as “did not substantially impact the extent of CAR+ T cell expansion”. In addition, in assay [2] (5 μM, three days with 200 μg BCMA beads at 1:1, versus vehicle), the “proliferative capacity of T cells (CTV)” value was “increased the proliferative capacity of T cells”. In addition, the “surface expression of CD25 in CD4+ and CD8+ T cells” value in assay [2] (lenalidomide present during BCMA bead or anti-CD3 stimulation) is given as “further increased the extent of surface expression of CD25”. Also, the “proliferation (cell count)” value in assay [3] (50 ug beads, day 7) is “small increase in proliferation”. Moreover, in assay [3] (50 μg/mL beads, day 4 but not day 7), the “proliferation as assessed by CTV dilution” value is listed as “slight delay in proliferation”. The cytokine production result in assay [4] (1 μM lenalidomide during prestimulation versus vehicle) is recorded as “trend toward increased cytokine production”. Also, the cytolytic function result in assay [4] (1 μM lenalidomide during the prestimulation period) was “preserved cytolytic function”. Besides, the killing efficacy result in assay [5] (further donor (FIG. 10B), all time points) is listed as “increased killing efficacy”; in assay [5] (preincubated with lenalidomide 14 or 21 days compared to day 7) it was “overall decrease in killing efficacy”. In addition, in assay [5] (preincubated with 5 μM lenalidomide 7 or 14 days, exemplary donor), the cytolytic activity entry is recorded as “exhibited greater cytolytic activity”.

The values are drawn from patent US20230242654A1, “REAGENTS FOR EXPANDING CELLS EXPRESSING RECOMBINANT RECEPTORS” (Juno Therapeutics, Inc., priority 2017, published 2023).
